# Test results from patent US20180333461A1, “METHODS AND COMPOSITIONS FOR TREATING OR PREVENTING FLAVIVIRUS INFECTIONS” (THE UNIVERSITY OF QUEENSLAND, priority 2014, published 2018).
# Entries after “also recorded” stand apart in the source; their conditions may differ.
# Legend:
# human PBMC = assay: IL-6 secretion by human PBMC (ELISA), with or without polymyxin B pre-incubation; assay type: cell-based; settings: 24 hours
# Method: FIG. 1 is a graphical representation showing that Dengue NS1 activates human and mouse innate immune responses. (A) NS1 induces IL-6 secretion by human PBMC. Cells were treated for 24 hrs. with LPS (100 ng/mL), NS1 (40 μg/mL), or an analogous NS1 sample immune-depleted with anti-NS1 or anti-E antibody. IL-6 was measured by ELISA. Data shown is mean±SD of three donors. The inset immunoblot is of the supernatant fraction following immuno-depletion using anti-NS1 antibody or isotype-matched control antibody. […] ELAM promoter activity was monitored as in B, in response to LPS (100 ng/mL), NS1 (40 μg/mL), NS1 immuno-depleted using anti-NS1 antibody or isotype-matched control antibody (confirmed in western blot inset).
# NS1 and LPS were pre-incubated for 30 minutes with or without polymyxin B, then added to PBMC and incubated for 24 hours. […] Released IL-6 was measured by ELISA. […] After 1 hour of treatment, CSF1R levels were determined by flow cytometry, and the % of cells with high levels of receptor are shown. […]
# Human PBMCs from healthy donors were seeded at 1×10^6 cells per well in 12 well plates prior to incubation with NS1 or LPS. […] The level of IL-6 production was quantitated ELISA (R & D Systems) according to the protocol recommended by the manufacturer.
# [1] = test system: bone marrow-derived macrophages (BMM); assay: CSF-1R down-modulation assay on BMMs (flow cytometry); assay type: cell-based, mouse; settings: 1 hour treatment
# Method: NS1 and LPS were pre-incubated for 30 minutes with or without polymyxin B, then added to PBMC and incubated for 24 hours. The final concentration of polymyxin B was 25 μg/mL, with varying concentrations of LPS (0.1, 1, 10 ng/mL) and NS1 (5, 10, 20 and 40 μg/mL). Released IL-6 was measured by ELISA. […] NS1 and LPS were pre-incubated for 30 minutes with or without polymyxin B then added to BMMs that had been starved of CSF1 overnight. The final concentration of polymyxin B was 25 μg/mL, with LPS (10-fold dilutions from 100 ng/mL) and NS1 (2′-fold dilutions from 10 μg/mL). After 1 hour of treatment, CSF1R levels were determined by flow cytometry, and the % of cells with high levels of receptor are shown. Data are the mean±SD from three (A) or five (B) independent experiments.
# FIG. 3 is a graphical representation showing that NS1 from several sources has immunostimulatory activity. (A) NS1 immuno-depletion prevents the down-modulation of surface CSF1R by S2 cell-expressed NS1. […] The final concentration of 5 μg/mL NS1 (as quantified by capture-ELISA) represents approximately 4-fold higher levels than produced in the CHO cell medium. […]
# FIG. 5 is a graphical representation showing that NS1 activates cells via TLR4. […] CSF1R on wild-type C57BL/6 BMM (WT), tlr4^−/− and MyD88^−/−/trif^−/− BMMs was measured after 1 hour treatment with CSF1 (10^4 U/mL), LPS (100 ng/mL) and NS1 (10 μg/mL). […]
substance,measurement,setting,value
polymyxin B,Effect on LPS-induced IL-6 in PBMC,"human PBMC; polymyxin B 25 μg/mL pre-incubated with LPS 30 min, LPS ≤10 ng/mL",inhibited
same,Effect on NS1-induced IL-6 in PBMC,human PBMC; polymyxin B 25 μg/mL pre-incubated with NS1 (5-40 μg/mL) 30 min,does not block; also recorded: unaffected
same,Effect on LPS-induced loss of surface CSF1R on BMMs,[1]; polymyxin B 25 μg/mL pre-incubated with LPS 30 min,sensitive
same,Effect on NS1-induced loss of surface CSF1R on BMMs,[1]; polymyxin B 25 μg/mL pre-incubated with NS1 30 min,does not block
